The values below come from patent US20070059359A1, “Immediate-release and high-drug-load pharmaceutical formulations of non-micronised (4-chlorophenyl)[4-(4-pyridylmethyl)phthalazin-1-yl] and salts thereof” (priority 2005, published 2007).

One series relates to VEGFR kinases. As to conditions: not dependent on a specific ligand; cited from earlier work.
Series [1] is described as follows: Hazard classification, internal workspace limit. Conditions: classified as being hazardous.

Regarding `Clc1ccc(Nc2nnc(Cc3ccncc3)c3ccccc23)cc1` [(4-chlorophenyl)[4-(4-pyridylmethyl)-phthalazin-1-yl]], in the series on VEGFR kinases, the “inhibition of VEGFR kinases” value is reported as “inhibitor of all three VEGFR kinases”.
For the compound `Clc1ccc(Nc2nnc(Cc3ccncc3)c3ccccc23)cc1` [pynasunate, (4-chlorophenyl)[4-(4-pyridylmethyl)-phthalazin-1-yl]ammonium hydrogen succinate], the internal workspace limit in series [1] was 0.1 mg/m^3.
